Laboratory results: patent US9884843B2 (Peloton Therapeutics, Inc., priority 2013, dated 2018)

Each compound was assayed on 786-O-Hif-Luc cells (assay: Luciferase Assay (HIF responsive element reporter)). Details: 786-O-Hif-Luc cells, about 24 hours; read-out: Mean Luciferease EC50.
Format: cell-based
Procedure: A pool of infected cells were then selected against 2 μg/mL of puromycin (P8833, Sigma) for 10 days followed by limited dilution to select single clones.
Each concentration was tested in triplicate. After about 24 hours, luciferase activity was determined using ONE-Glo Luciferase Assay Reagent (E6110, Promega) following the manufacturer's recommended procedure. EC50 were calculated by using Dotmatics software.

SMILES | EC50
O=S1(=O)c2ccc(Oc3cc(F)cc(Cl)c3)c(C(F)F)c2C(O)C1(F)F (centres unmarked) [Compound 18, 5-(3-Chloro-5-fluorophenoxy)-4-(difluoromethyl)-2,2-difluoro-3-hydroxy-2,3-dihydrobenzo[b]thiophene 1,1-dioxide] | 0.017 µM
N#Cc1cc(F)cc(Oc2ccc3c(c2C(F)F)C(O)C(F)(F)S3(=O)=O)c1 (centres unmarked) [Compound 29, 3-((4-(Difluoromethyl)-2,2-difluoro-3-hydroxy-1,1-dioxido-2,3-dihydrobenzo[b]thiophen-5-yl)oxy)-5-fluorobenzonitrile] | 0.004 µM
N=S1(=O)c2ccc(Oc3cc(F)cc(F)c3)c(Br)c2C(O)C1(F)F (centres unmarked) [Compound 32, 4-bromo-5-(3,5-difluorophenoxy)-2,2-difluoro-3-hydroxy-1-imino-2,3-dihydro-1H-1λ^4-benzo[b]thiophene 1-oxide] | 0.29 µM
[2H]C1(O)c2c(ccc(Oc3cc(F)cc(C#N)c3)c2C(F)F)S(=O)(=O)C1(F)F (centres unmarked) [Compound 40, 3-((4-(Difluoromethyl)-2,2-difluoro-3-hydroxy-1,1-dioxido-2,3-dihydrobenzo[b]thiophen-5-yl-3-d)oxy)-5-fluorobenzonitrile] | 0.012 µM
N#Cc1cc(F)cc(Oc2ccc3c(c2C(F)F)[C@@H](N)C(F)(F)S3(=O)=O)c1 [Compound 41, (R)-3-((3-Amino-4-(difluoromethyl)-2,2-difluoro-1,1-dioxido-2,3-dihydrobenzo[b]thiophen-5-yl)oxy)-5-fluorobenzonitrile] | 0.14 µM

Same assay, conditions: 24 h, 786-O-Hif-Luc cells, about 24 hours; read-out: Mean Luciferease EC50

SMILES | EC50
O=S1(=O)CC(O)c2c1ccc(Oc1cc(F)cc(Cl)c1)c2C(F)F (centres unmarked) [Compound 15, 5-(3-Chloro-5-fluorophenoxy)-4-(difluoromethyl)-3-hydroxy-2,3-dihydrobenzo[b]thiophene 1,1-dioxide] | 0.73 µM
O=S1(=O)CC(O)c2c1ccc(Oc1cc(F)cc(F)c1)c2C(F)F (centres unmarked) [Compound 24, 4-(Difluoromethyl)-5-(3,5-difluorophenoxy)-3-hydroxy-2,3-dihydrobenzo[b]thiophene 1,1-dioxide] | 0.72 µM
N#Cc1c(Oc2cc(F)cc(F)c2)ccc2c1C(O)C(F)S2(=O)=O (centres unmarked) [Compound 44, 5-(3,5-Difluorophenoxy)-2-fluoro-3-hydroxy-2,3-dihydrobenzo[b]thiophene-4-carbonitrile 1,1-dioxide] | 0.79 µM
COc1cc(F)cc(Oc2ccc3c(c2Br)[C@@H](O)C(F)(F)S3(=O)=O)c1 [Compound 80, (R)-4-Bromo-2,2-difluoro-5-(3-fluoro-5-methoxyphenoxy)-3-hydroxy-2,3-dihydrobenzo[b]thiophene 1,1-dioxide] | 0.41 µM
N#Cc1cccc(Oc2ccc3c(c2Br)[C@@H](O)C(F)(F)S3(=O)=O)c1 [Compound 84, (R)-3-((4-bromo-2,2-difluoro-3-hydroxy-1,1-dioxido-2,3-dihydrobenzo[b]thiophen-5-yl)oxy)benzonitrile] | 0.033 µM
N#Cc1cc(F)cc(Oc2ccc3c(c2F)C(O)C(F)(F)S3(=O)=O)c1 (centres unmarked) [Compound 88, 3-Fluoro-5-((2,2,4-trifluoro-3-hydroxy-1,1-dioxido-2,3-dihydrobenzo[b]thiophen-5-yl)oxy)benzonitrile] | 0.88 µM
N#Cc1cc(Oc2ccc3c(c2C(F)F)[C@@H](O)C(F)(F)S3(=O)=O)ccc1F [Compound 91, (R)-5-((4-(Difluoromethyl)-2,2-difluoro-3-hydroxy-1,1-dioxido-2,3-dihydrobenzo[b]thiophen-5-yl)oxy)-2-fluorobenzonitrile] | 0.31 µM
O=S1(=O)c2ccc(Oc3cccc4cn[nH]c34)c(C(F)F)c2C(O)C1(F)F (centres unmarked) [Compound 95, 5-((1H-Indazol-7-yl)oxy)-4-(difluoromethyl)-2,2-difluoro-3-hydroxy-2,3-dihydrobenzo[b]thiophene 1,1-dioxide] | 6.89 µM
CC1(O)c2c(ccc(Oc3cc(F)cc(C#N)c3)c2C#N)S(=O)(=O)C1(F)F (centres unmarked) [Compound 105, 5-(3-Cyano-5-fluorophenoxy)-2,2-difluoro-3-hydroxy-3-methyl-2,3-dihydrobenzo[b]thiophene-4-carbonitrile 1,1-dioxide] | 0.048 µM
N#CC1(COc2ccc3c(c2C(F)F)C(O)C(F)(F)S3(=O)=O)CC1 (centres unmarked) [Compound 109, 1-(((4-(difluoromethyl)-2,2-difluoro-3-hydroxy-1,1-dioxido-2,3-dihydrobenzo[b]thiophen-5-yl)oxy)methyl)cyclopropane-1-carbonitrile] | 6.7 µM
CC(C)Oc1ccc2c(c1C#N)C(C)(O)C(F)(F)S2(=O)=O (centres unmarked) [Compound 110, 2,2-Difluoro-3-hydroxy-5-isopropoxy-3-methyl-2,3-dihydrobenzo[b]thiophene-4-carbonitrile 1,1-dioxide] | 5.4 µM
N[C@@H]1c2c(ccc(Oc3cc(F)cc(Br)c3)c2Br)S(=O)(=O)C1(F)F [Compound 116, (R)-3-Amino-4-bromo-5-(3-bromo-5-fluorophenoxy)-2,2-difluoro-2,3-dihydrobenzo[b]thiophene 1,1-dioxide] | 0.8 µM

Same assay, conditions: 24 h, read-out: Mean Luciferease EC50

SMILES | EC50
O=S1(=O)CC(O)c2c1ccc(Oc1cc(F)cc(Cl)c1)c2Br (centres unmarked) [Compound 6, 4-Bromo-5-(3-chloro-5-fluorophenoxy)-3-hydroxy-2,3-dihydrobenzo[b]thiophene 1,1-dioxide] | 4.85 µM
N#Cc1cc(F)cc(Oc2ccc3c(c2C(F)F)[C@H](O)C(F)(F)S3(=O)=O)c1 [Compound 34, (S)-3-((4-(Difluoromethyl)-2,2-difluoro-3-hydroxy-1,1-dioxido-2,3-dihydrobenzo[b]thiophen-5-yl)oxy)-5-fluorobenzonitrile] | 0.02 µM

What follows are compounds tested against HIF-2α HIS TAG-PASB Domain (Homo sapiens, UniProt Q99814) (assay: biochemical). Details: displacement of Compound 120 probe; mean; read-out: Mean SPA IC50.
Format: binding
Text: The term “scintillation proximity assay” (SPA) refers to a homogenous assay in which light is emitted when a radiolabeled ligand is brought into close proximity to a radiosensitive bead. The assay typically contains a target protein that contains a tag (e.g., His Tag, Glutathione S-transferase Tag). The tag on the protein is used to bind the target protein to the scintillation bead. Radiolabeled ligand (e.g., labeled with tritium) that binds to the protein is now in close proximity to the bead, and when the raidolabel (e.g., tritium) decays, the high energy particle hits the bead resulting in the emission of light that is detected by a detector, such as photomultiplier tube or CCD camera. When unlabeled ligands or compounds that bind to the protein are used in the assay, they displace the radiolabeled ligand, resulting in loss of signal.
The total assay volume was about 100 μL in the following configuration: 2-μL compound in DMSO, 88 μL buffer with protein and probe and 10 μL of SPA beads. […] To each compound, 88 μL of the buffer solution was then added. […] The percent inhibition was determined and IC50 values were calculated using the Dotmatics system based on the following equation: % inhibition=[(high control−sample)/(high control−low control)]×100.

Chain of HIF-2α HIS TAG-PASB Domain (Q99814 whole entry, looked up, the tested form may be a part): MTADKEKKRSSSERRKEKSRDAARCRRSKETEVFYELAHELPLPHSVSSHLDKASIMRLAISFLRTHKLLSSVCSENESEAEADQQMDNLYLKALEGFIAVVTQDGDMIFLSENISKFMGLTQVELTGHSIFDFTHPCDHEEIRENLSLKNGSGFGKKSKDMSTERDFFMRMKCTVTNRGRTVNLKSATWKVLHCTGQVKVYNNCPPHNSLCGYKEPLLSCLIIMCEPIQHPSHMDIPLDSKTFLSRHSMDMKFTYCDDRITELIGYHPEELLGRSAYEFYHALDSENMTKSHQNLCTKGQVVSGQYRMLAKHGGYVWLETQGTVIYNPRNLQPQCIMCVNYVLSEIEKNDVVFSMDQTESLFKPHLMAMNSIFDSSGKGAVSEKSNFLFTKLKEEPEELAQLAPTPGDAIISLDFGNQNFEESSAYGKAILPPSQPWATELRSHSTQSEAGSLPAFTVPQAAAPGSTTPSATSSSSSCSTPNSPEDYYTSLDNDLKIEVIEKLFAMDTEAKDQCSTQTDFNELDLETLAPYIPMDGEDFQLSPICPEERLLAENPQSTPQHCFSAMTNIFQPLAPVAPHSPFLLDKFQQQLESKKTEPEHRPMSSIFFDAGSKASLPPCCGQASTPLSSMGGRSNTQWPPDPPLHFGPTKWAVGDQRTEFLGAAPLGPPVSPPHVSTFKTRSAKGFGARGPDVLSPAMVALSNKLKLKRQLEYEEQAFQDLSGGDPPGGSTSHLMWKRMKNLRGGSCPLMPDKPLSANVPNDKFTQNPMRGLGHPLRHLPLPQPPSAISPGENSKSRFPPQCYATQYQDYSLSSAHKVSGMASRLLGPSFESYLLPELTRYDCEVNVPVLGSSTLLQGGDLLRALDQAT

SMILES | IC50
N#Cc1c(Oc2cc(F)cc(F)c2)ccc2c1C(O)(C(F)(F)F)CS2(=O)=O (centres unmarked) [Compound 102, 5-(3,5-Difluorophenoxy)-3-hydroxy-3-(trifluoromethyl)-2,3-dihydrobenzo[b]thiophene-4-carbonitrile 1,1-dioxide] | 4.6 µM
N#Cc1cc(F)cc(Oc2ccc3c(c2C#N)C(O)(C(F)(F)F)CS3(=O)=O)c1 (centres unmarked) [Compound 104, 5-(3-Cyano-5-fluorophenoxy)-3-hydroxy-3-(trifluoromethyl)-2,3-dihydrobenzo[b]thiophene-4-carbonitrile 1,1-dioxide] | 6.3 µM
CC1(O)c2c(ccc(OCc3ccccc3)c2C#N)S(=O)(=O)C1(F)F (centres unmarked) [Compound 113, 5-(Benzyloxy)-2,2-difluoro-3-hydroxy-3-methyl-2,3-dihydrobenzo[b]thiophene-4-carbonitrile 1,1-dioxide] | 16.7 µM
C=CC1(O)c2c(ccc(Oc3cc(F)cc(C#N)c3)c2C#N)S(=O)(=O)C1(F)F (centres unmarked) [Compound 114, 5-(3-Cyano-5-fluorophenoxy)-2,2-difluoro-3-hydroxy-3-vinyl-2,3-dihydrobenzo[b]thiophene-4-carbonitrile 1,1-dioxide] | > 100 µM
CC1(O)c2c(ccc(OC3CC(F)(F)C3)c2C#N)S(=O)(=O)C1(F)F (centres unmarked) [Compound 115, 5-(3,3-Difluorocyclobutoxy)-2,2-difluoro-3-hydroxy-3-methyl-2,3-dihydrobenzo[b]thiophene-4-carbonitrile 1,1-dioxide] | 6.7 µM

Same assay, conditions: unnumbered compounds listed by structure and name; read-out: IC50 value in SPA

SMILES | IC50
N=S1(=O)CC(O)c2c1ccc(Oc1cc(F)cc(F)c1)c2Br (centres unmarked) [[4-bromo-5-(3,5-difluorophenoxy)-3-hydroxy-1-imino-2,3-dihydro-1λ^4-benzo[b]thiophene 1-oxide] | > 100 µM
N#CN=S1(=O)C[C@H](O)c2c1ccc(Oc1cc(F)cc(F)c1)c2Cl (stereo partly drawn) [[(3R)-4-chloro-5-(3,5-difluorophenoxy)-3-hydroxy-1-oxo-2,3-dihydrobenzothiophen-1-ylidene]cyanamide] | 25 to 100 µM
